The source of these data is publication PMC9607164, “Rational Design, Synthesis and Biological Evaluation of Novel Pyrazoline-Based Antiproliferative Agents in MCF-7 Cancer Cells” (Pharmaceuticals, 2022).

The structures appear in SMILES notation. Read-outs that look alike come from different tables or passages of the source.

One data set has as its target T1, HER2 Kinase (Homo sapiens, UniProt P04626).
T1 construct: purchased BPS Bioscience 40721
Kind of data set: HER2 Kinase Assay Kit (BPS Bioscience). The class given is biochemical. Particulars: mean ± SD of three replicates, five concentrations. The method, then: (§1) Compounds’ autophosphorylation percentage inhibition was computed according to the following equation: […] , then IC50 values were calculated using GraphPad prism software.

The next data set addresses T2, EGFR Kinase (Homo sapiens, UniProt P00533).
T2 construct: purchased BPS Bioscience 40321
Kind of data set: EGFR Kinase Assay Kit (BPS Bioscience). The class given is biochemical. Particulars: mean ± SD of three replicates, five concentrations. The method, then:
as §1

Data set [1] deals with MCF-10A normal breast cells. The data set is described as follows: MTT cytotoxicity assay on MCF-10A. As to conditions: Homo sapiens, 48 h, n = 3, read-out: IC50 ± SD, MCF-10A. The class given is cell-based. The method, then:
(§2) Both breast cancer (MCF-7) and normal breast (MCF-10A) cells were purchased from National Research Institute, Egypt, and maintained in complete media of RPMI-1640 medium L-Glutamine (Lonza Verviers SPRL, Belgium, cat#12-604F). Cells were incubated following standard tissue culture work. Cell viability was measured 48 h later, utilizing MTT colorimetric assay (Promega, Madison, WI, USA). Absorbance was consequently assessed (at 570 nm) using an ELISA microplate reader (BIO-RAD, model iMark, Tokyo, Japan). Using GraphPad Prism 7, the IC50 values were determined, and the viability at each concentration was determined in comparison to the control.
(In general: Tetrazolium assays rely on reduction of a dye to a coloured formazan, in cell work by metabolically active cells.)

The test system of a further data set is MCF-7 cancer cells. The data set is described as follows: MTT cytotoxicity assay on MCF-7. The class given is cell-based. As to conditions: MTT assay, 48 h, n = 3, NA: Non-Active, read-out: IC50 ± SD, MCF-7. The method, then:
as §2

Data set [2] relates to breast cancer cells MCF-7. Particulars: cited from earlier work.
Data set [3] is classed as in vivo. As to conditions: 10 mg/kg BW, IP; MCF-7 control 32.28 g, normal 24.5 g. From the text: In vivo experiments for lethal dose (LD50), experimental design, tumor mass, blood parameters, histopathological examinations were accomplished as previously described. After inoculating the tumor cells, masses of the solid tumor started to appear ten days later. […]. Animals from each group were sacrificed, and their blood was drawn to measure hemoglobin (Hb), red blood cell (RBC), white blood cell (WBC), and liver enzymes (ALT, AST, albumin, and total protein) levels.

The mark [4] stands for this setting: reported pyrazoline-based agents.

In general, IC50 refers to the concentration needed to halve the response being measured. The melting point is the temperature of the solid-liquid transition. Broadly, the GI50 is the concentration that inhibits growth by half.

T1 sequence (P04626 23-1255): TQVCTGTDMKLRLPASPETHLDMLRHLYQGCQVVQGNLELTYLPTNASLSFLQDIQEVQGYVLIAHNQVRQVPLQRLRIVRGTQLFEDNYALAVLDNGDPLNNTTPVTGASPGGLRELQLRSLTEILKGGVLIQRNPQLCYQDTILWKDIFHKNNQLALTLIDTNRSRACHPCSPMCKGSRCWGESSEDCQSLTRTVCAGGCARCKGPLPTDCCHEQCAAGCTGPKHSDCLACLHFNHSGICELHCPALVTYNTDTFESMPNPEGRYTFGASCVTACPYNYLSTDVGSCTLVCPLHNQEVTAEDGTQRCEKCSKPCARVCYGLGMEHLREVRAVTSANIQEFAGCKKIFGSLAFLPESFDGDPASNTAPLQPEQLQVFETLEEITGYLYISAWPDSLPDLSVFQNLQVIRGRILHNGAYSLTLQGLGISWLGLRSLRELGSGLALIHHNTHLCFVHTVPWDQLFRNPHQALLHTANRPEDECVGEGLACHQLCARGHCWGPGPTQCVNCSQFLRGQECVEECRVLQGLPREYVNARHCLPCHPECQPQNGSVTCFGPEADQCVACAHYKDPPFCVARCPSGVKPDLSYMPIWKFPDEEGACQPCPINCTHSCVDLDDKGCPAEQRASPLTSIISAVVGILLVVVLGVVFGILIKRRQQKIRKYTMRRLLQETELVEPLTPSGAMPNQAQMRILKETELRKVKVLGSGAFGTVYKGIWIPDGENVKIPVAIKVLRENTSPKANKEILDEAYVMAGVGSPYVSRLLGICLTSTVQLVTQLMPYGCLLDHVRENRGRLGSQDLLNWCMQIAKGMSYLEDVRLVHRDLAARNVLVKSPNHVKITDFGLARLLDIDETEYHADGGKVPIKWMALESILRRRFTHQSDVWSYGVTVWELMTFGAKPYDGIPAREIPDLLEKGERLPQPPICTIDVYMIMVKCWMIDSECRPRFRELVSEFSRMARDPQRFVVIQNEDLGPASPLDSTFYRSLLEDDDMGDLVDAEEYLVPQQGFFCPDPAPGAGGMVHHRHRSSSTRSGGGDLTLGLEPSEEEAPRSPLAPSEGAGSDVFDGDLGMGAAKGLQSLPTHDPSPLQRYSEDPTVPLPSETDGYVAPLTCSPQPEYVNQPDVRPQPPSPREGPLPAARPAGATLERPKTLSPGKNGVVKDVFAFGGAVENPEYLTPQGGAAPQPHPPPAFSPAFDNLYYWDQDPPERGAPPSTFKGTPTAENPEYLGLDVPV
T2 sequence (P00533 25-1210): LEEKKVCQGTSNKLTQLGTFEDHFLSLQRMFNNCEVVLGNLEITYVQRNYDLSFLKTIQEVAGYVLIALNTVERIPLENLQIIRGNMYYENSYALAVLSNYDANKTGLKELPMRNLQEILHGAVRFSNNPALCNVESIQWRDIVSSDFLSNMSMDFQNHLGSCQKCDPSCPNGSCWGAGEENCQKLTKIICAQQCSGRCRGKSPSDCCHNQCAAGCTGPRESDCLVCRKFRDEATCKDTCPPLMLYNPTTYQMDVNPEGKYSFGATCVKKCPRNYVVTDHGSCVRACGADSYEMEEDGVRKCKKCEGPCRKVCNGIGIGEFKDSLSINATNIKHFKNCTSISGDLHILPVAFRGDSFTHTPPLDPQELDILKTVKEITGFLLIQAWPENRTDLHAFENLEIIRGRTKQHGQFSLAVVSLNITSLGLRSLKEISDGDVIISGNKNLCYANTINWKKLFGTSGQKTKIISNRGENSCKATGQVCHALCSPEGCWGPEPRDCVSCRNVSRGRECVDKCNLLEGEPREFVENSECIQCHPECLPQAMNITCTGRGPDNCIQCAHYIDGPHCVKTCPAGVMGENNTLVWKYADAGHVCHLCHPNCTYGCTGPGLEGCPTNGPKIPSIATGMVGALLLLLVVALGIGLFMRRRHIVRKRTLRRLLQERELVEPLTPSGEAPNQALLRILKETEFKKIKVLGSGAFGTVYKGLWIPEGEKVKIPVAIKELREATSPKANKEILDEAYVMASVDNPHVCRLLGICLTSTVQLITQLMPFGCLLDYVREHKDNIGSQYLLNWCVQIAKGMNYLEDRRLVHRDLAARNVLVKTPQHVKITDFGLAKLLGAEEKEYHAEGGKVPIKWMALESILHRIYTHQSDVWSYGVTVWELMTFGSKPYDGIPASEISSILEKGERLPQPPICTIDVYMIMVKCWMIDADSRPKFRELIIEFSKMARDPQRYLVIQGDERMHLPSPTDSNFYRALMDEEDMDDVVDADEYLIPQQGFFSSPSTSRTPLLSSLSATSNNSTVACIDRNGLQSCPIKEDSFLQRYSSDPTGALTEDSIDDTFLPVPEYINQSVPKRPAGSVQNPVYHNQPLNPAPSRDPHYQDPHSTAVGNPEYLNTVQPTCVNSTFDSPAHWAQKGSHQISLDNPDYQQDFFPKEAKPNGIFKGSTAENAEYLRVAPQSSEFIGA

In turn, `COc1ccc(C2CC(c3ccc(OC)c(OC)c3)=NN2c2nc(-c3ccc(C)cc3)cs2)cc1` (stereo not drawn) [Compound 6f, 2-(3-(3,4-Dimethoxyphenyl)-5-(4-methoxyphenyl)-4,5-dihydro-1H-pyrazol-1-yl)-4-(p-tolyl)thiazole] showed a melting point of 150 to 152 °C. Further, the midpoint of inhibition against HER2 Kinase, the IC50, lay at 0.12 ± 0.025 µM. Also, the midpoint of inhibition against EGFR Kinase, the IC50, lay at 0.23 ± 0.024 µM. Moreover, in data set [1], the IC50 was found to be 35.4 ± 1.84 µM. In addition, the IC50 in the data set with MCF-7 cancer cells (Homo sapiens, MCF7, 48 h) worked out at 11.1 ± 0.85 µM.
The compound `COc1ccc(C2=NN(c3nc(-c4ccc(C)cc4)cs3)C(c3ccc(Cl)cc3)C2)cc1OC` (stereo not drawn) [Compound 6j, 2-(5-(4-Chlorophenyl)-3-(3,4-dimethoxyphenyl)-4,5-dihydro-1H-pyrazol-1-yl)-4-(p-tolyl)thiazole] yielded a melting point of 189 to 191 °C. Further, the IC50 in data set [1] is at least 50 µM.
As for `COc1ccc2ccc(=O)oc2c1C1=NN(S(=O)(=O)c2ccc(C)cc2)C(c2ccccc2)C1` (stereo not drawn) [III], the IC50 in data set [2] (setting [4]) was 34.1 µM.
`COc1ccc(C2CC(c3ccc(OC)c(OC)c3)=NN2c2nc(-c3ccc(F)cc3)cs2)cc1` (stereo not drawn) [Compound 6g, 2-(3-(3,4-Dimethoxyphenyl)-5-(4-methoxyphenyl)-4,5-dihydro-1H-pyrazol-1-yl)-4-(4-fluorophenyl)thiazole] registered a melting point of 140 to 143 °C. For the same compound, the half-maximal inhibitory concentration (IC50) in data set [1] is 24.5 ± 1.01 µM. The IC50 with MCF-7 cancer cells (Homo sapiens, MCF7, 48 h) amounted to 15.4 ± 0.79 µM.
Compound `COc1ccc(C2=NN(C(N)=S)C(c3ccc(Cl)cc3)C2)cc1OC` (stereo not drawn) [Compound 3c, 5-(4-Chlorophenyl)-3-(3,4-dimethoxyphenyl)-4,5-dihydro-1H-pyrazole-1-carbothioamide] had a melting point of 230 to 232 °C. Further, the IC50 on HER2 Kinase is 0.07 ± 0.018 µM. On EGFR Kinase, this compound came in with an IC50 of 0.067 ± 0.009 µM. Also, the IC50 in data set [1] is at least 50 µM. Further, the 50% inhibitory concentration (IC50) in the data set with MCF-7 cancer cells (Homo sapiens, MCF7, 48 h) was determined as 11.1 µM. Moreover, the IC50 in the data set with MCF-7 cancer cells turned out to be 11.2 ± 0.54 µM.
As for `COc1ccc(C2=NN(c3nc(-c4ccc(F)cc4)cs3)C(c3ccccc3)C2)cc1OC` (stereo not drawn) [Compound 6c, 2-(3-(3,4-Dimethoxyphenyl)-5-phenyl-4,5-dihydro-1H-pyrazol-1-yl)-4-(4-fluorophenyl)thiazole], the melting point was 135 to 140 °C. In addition, the IC50 in data set [1] is at least 50 µM. The half-maximal inhibitory concentration (IC50) in the data set with MCF-7 cancer cells (Homo sapiens, MCF7, 48 h) is 18.7 ± 0.84 µM.
For `COc1ccc(C2=NN(c3nc(-c4ccccc4)cs3)C(c3ccccc3)C2)cc1OC` (stereo not drawn) [Compound 6a, 2-(3-(3,4-Dimethoxyphenyl)-5-phenyl-4,5-dihydro-1H-pyrazol-1-yl)-4-phenylthiazole], the melting point lay within 202 to 205 °C. Besides, the IC50 in data set [1] was at least 50 µM.
`COc1ccc(C2=NN(c3nc(-c4ccc(C)cc4)cs3)C(c3ccccc3)C2)cc1OC` (stereo not drawn) [Compound 6b, 2-(3-(3,4-Dimethoxyphenyl)-5-phenyl-4,5-dihydro-1H-pyrazol-1-yl)-4-(p-tolyl)thiazole] yielded a melting point of 210 to 215 °C. Moreover, in data set [1], the concentration for half-maximal inhibition (IC50) was at least 50 µM. For the same compound, the IC50 with MCF-7 cancer cells (Homo sapiens, MCF7, 48 h) turned out to be 13.4 ± 0.98 µM.
In the case of `COc1ccc(C2=NN(c3nc(C)c(C(C)=O)s3)C(c3ccc(Cl)cc3)C2)cc1OC` (stereo not drawn) [Compound 9c, 1-(2-(5-(4-Chlorophenyl)-3-(3,4-dimethoxyphenyl)-4,5-dihydro-1H-pyrazol-1-yl)-4-methylthiazol-5-yl)ethan-1-one], the melting point was in the range of 215 to 218 °C. For the same compound, the IC50 in data set [1] is at least 50 µM.
For the compound `Cc1nc(Nc2ncc(C(=O)Nc3c(C)cccc3Cl)s2)cc(N2CCN(CCO)CC2)n1` [Dasatinib], the “MCF-7 (measure not named)” value in data set [2] (Figure 2, reported agent) was 17.03 µM.
As for `COc1ccc(C2CC(c3ccc(OC)c(OC)c3)=NN2c2nc(-c3ccc(Cl)cc3)cs2)cc1` (stereo not drawn) [Compound 6h, 4-(4-Chlorophenyl)-2-(3-(3,4-dimethoxyphenyl)-5-(4-methoxyphenyl)-4,5-dihydro-1H-pyrazol-1-yl)thiazole], the melting point lay within 149 to 151 °C. Besides, the half-inhibitory concentration (IC50) in data set [1] was 26.5 ± 1.59 µM. Moreover, the concentration for half-maximal inhibition (IC50) in the data set on MCF-7 cancer cells (Homo sapiens, MCF7, 48 h) was 35.2 ± 1.27 µM.
Compound `CCOC(=O)c1sc(N2N=C(c3ccc(OC)c(OC)c3)CC2c2ccc(OC)cc2)nc1C` (stereo not drawn) [Compound 9e, Ethyl 2-(3-(3,4-Dimethoxyphenyl)-5-(4-methoxyphenyl)-4,5-dihydro-1H-pyrazol-1-yl)-4-methylthiazole-5-carboxylate] showed a melting point of 169 to 171 °C. In addition, the 50% inhibitory concentration (IC50) in data set [1] came out at 43.6 ± 1.85 µM. The IC50 in the data set on MCF-7 cancer cells (Homo sapiens, MCF7, 48 h) stood at 18.9 ± 1.03 µM.
On to `O=C1CCC(=O)N1CC(=O)N1N=C(c2ccccc2)CC1c1ccccc1` (stereo not drawn) [II], for which, in data set [2] (setting [4]), the half-maximal inhibitory concentration (IC50) was 0.42 µM.
As to `COc1ccc(C2=NN(c3nc(-c4ccc(Cl)cc4)cs3)C(c3ccc(Cl)cc3)C2)cc1OC` (stereo not drawn) [Compound 6l, 4-(4-Chlorophenyl)-2-(5-(4-chlorophenyl)-3-(3,4-dimethoxyphenyl)-4,5-dihydro-1H-pyrazol-1-yl)thiazole], the melting point lay in the range of 195 to 197 °C. In data set [1], the concentration for half-maximal inhibition (IC50) stood at 35.7 ± 1.85 µM. Moreover, the IC50 with MCF-7 cancer cells (Homo sapiens, MCF7, 48 h) was found to be 17.6 ± 0.97 µM.
The like results for `COc1ccc(C2=NN(c3nc(C)c(C(C)=O)s3)C(c3ccccc3)C2)cc1OC` (stereo not drawn) [Compound 9a, 1-(2-(3-(3,4-Dimethoxyphenyl)-5-phenyl-4,5-dihydro-1H-pyrazol-1-yl)-4-methylthiazol-5-yl)ethan-1-one] were, in that order, 235 to 238 °C, 18.9 ± 1.09 µM and 34.2 ± 1.68 µM.
`CC(=O)N1N=C(c2ccc(OC3OC4OC5(C)CCC6C(C)CCC(C3C)C46OO5)cc2)CC1c1ccccc1` (stereo not drawn) [I]: the concentration for 50% growth inhibition (GI50) in data set [2] (reported pyrazoline-based agent) was 0.13 µM.
Compound `COc1ccc(C2CC(c3ccc(OC)c(OC)c3)=NN2c2nc(C)c(C(C)=O)s2)cc1` (stereo not drawn) [Compound 9b, 1-(2-(3-(3,4-Dimethoxyphenyl)-5-(4-methoxyphenyl)-4,5-dihydro-1H-pyrazol-1-yl)-4-methylthiazol-5-yl)ethan-1-one] returned a melting point of 213 to 215 °C. Besides, in data set [1], the IC50 turned out to be 26.3 ± 1.07 µM. The concentration for half-maximal inhibition (IC50) in the data set with MCF-7 cancer cells (Homo sapiens, MCF7, 48 h) was 31.7 ± 1.96 µM.
`CS(=O)(=O)CCNCc1ccc(-c2ccc3ncnc(Nc4ccc(OCc5cccc(F)c5)c(Cl)c4)c3c2)o1` [Lapatinib, reference compound] returned a mice weight in data set [3] of 27.35 g. The IC50 was at least 50 µM in data set [1] and 7.45 µM with MCF-7 cancer cells (Homo sapiens, MCF7, 48 h).
In turn, `COc1ccc(C2=NN(c3nc(-c4ccc(Cl)cc4)cs3)C(c3ccccc3)C2)cc1OC` (stereo not drawn) [Compound 6d, 4-(4-Chlorophenyl)-2-(3-(3,4-dimethoxyphenyl)-5-phenyl-4,5-dihydro-1H-pyrazol-1-yl)thiazole] yielded a melting point of 195 to 198 °C. For the same compound, in data set [1], the IC50 is 45.2 ± 1.24 µM.
The like results for `CCOC(=O)c1sc(N2N=C(c3ccc(OC)c(OC)c3)CC2c2ccccc2)nc1C` (stereo not drawn) [Compound 9d, Ethyl 2-(3-(3,4-Dimethoxyphenyl)-5-phenyl-4,5-dihydro-1H-pyrazol-1-yl)-4-methylthiazole-5-carboxylate] were, in that order, 215 to 218 °C and 24.3 ± 1.39 µM.
On to `O=C1c2ccccc2C(=O)N1CCc1csc(N(/N=C/c2cc(Cl)cc(Cl)c2)C(=O)CCl)n1` [V], for which the IC50 in data set [2] (reported thiazole-based agent) was 9.06 µM.
Compound `COc1ccc(C2=NN(C(N)=S)C(c3ccccc3)C2)cc1OC` (stereo not drawn) [Compound 3a, 3-(3,4-Dimethoxyphenyl)-5-phenyl-4,5-dihydro-1H-pyrazole-1-carbothioamide] returned a melting point of 188 to 190 °C. Further, the IC50 in data set [1] came to 36.5 ± 1.15 µM.
`CCOC(=O)c1sc(N2N=C(c3ccc(OC)c(OC)c3)CC2c2ccc(Cl)cc2)nc1C` (stereo not drawn) [Compound 9f, Ethyl 2-(5-(4-Chlorophenyl)-3-(3,4-dimethoxyphenyl)-4,5-dihydro-1H-pyrazol-1-yl)-4-methylthiazole-5-carboxylate] registered a melting point of 197 to 200 °C. Besides, the 50% inhibitory concentration (IC50) against HER2 Kinase was 0.14 ± 0.006 µM. Besides, the concentration for half-maximal inhibition (IC50) against EGFR Kinase came to 0.051 ± 0.003 µM. Also, the IC50 in data set [1] is at least 50 µM. Also, the half-maximal inhibitory concentration (IC50) in the data set with MCF-7 cancer cells (Homo sapiens, MCF7, 48 h) amounted to 8.35 ± 0.29 µM.
`COc1ccc(C2=NN(c3nc(-c4ccccc4)cs3)C(c3ccc(Cl)cc3)C2)cc1OC` (stereo not drawn) [Compound 6i, 2-(5-(4-Chlorophenyl)-3-(3,4-dimethoxyphenyl)-4,5-dihydro-1H-pyrazol-1-yl)-4-phenylthiazole]: the melting point fell in the range of 208 to 210 °C. In data set [1], the IC50 came to 15.8 ± 1.08 µM. For the same compound, in the data set on MCF-7 cancer cells (Homo sapiens, MCF7, 48 h), the IC50 was found to be 45.4 ± 1.87 µM.
`COc1ccc(C2CC(c3ccc(OC)c(OC)c3)=NN2C(N)=S)cc1` (stereo not drawn) [Compound 3b, 3-(3,4-Dimethoxyphenyl)-5-(4-methoxyphenyl)-4,5-dihydro-1H-pyrazole-1-carbothioamide] registered a melting point of 221 to 223 °C. Moreover, in data set [1], the IC50 came out at 34.8 ± 1.35 µM. In the data set with MCF-7 cancer cells (Homo sapiens, MCF7, 48 h), the IC50 stood at 23.6 ± 0.72 µM.
